# Experimental data taken from paper doi:10.1101/2021.04.08.439011v1 (biorxiv, 2021).
# Columns and labels:
# HIPK4 = HIPK4 (Homo sapiens, UniProt Q8NE63); conditions: 0.1 µM; binder
# FYN = FYN (Homo sapiens, UniProt P06241); conditions: 0.1 µM; binder
# ABL1(M351T) = ABL1(M351T) (Homo sapiens, UniProt P00519, M351T); conditions: phosphorylated; 0.1 µM; binder
# ERBB4 = ERBB4 (Homo sapiens, UniProt Q15303); conditions: 0.1 µM; binder
# BIKE = BIKE (Homo sapiens, UniProt Q9NSY1); conditions: 0.1 µM; binder
# FRK = FRK (Homo sapiens, UniProt P42685); conditions: 0.1 µM; binder
# DAPK1 = DAPK1 (Homo sapiens, UniProt P53355); conditions: 0.1 µM; binder
# TRKA = TRKA (Homo sapiens, UniProt P04629); conditions: 0.1 µM; binder
# MST3 = MST3 (Homo sapiens, UniProt Q9Y6E0); conditions: 0.1 µM; binder
# PRKCQ = PRKCQ (Homo sapiens, UniProt Q04759); conditions: 0.1 µM; binder
# LIMK2 = LIMK2 (Homo sapiens, UniProt P53671); conditions: 0.1 µM; binder
# CDK4 = CDK4 (Homo sapiens, UniProt P11802); conditions: 0.1 µM; binder
# FAK = FAK (Homo sapiens, UniProt Q05397); conditions: 0.1 µM; binder
# IRAK3 = IRAK3 (Homo sapiens, UniProt Q9Y616); conditions: 0.1 µM; binder
# AKT1 = AKT1 (Homo sapiens, UniProt P31749); conditions: 0.1 µM; binder
# PHKG1 = PHKG1 (Homo sapiens, UniProt Q16816); conditions: 0.1 µM; binder
# CDKL5 = CDKL5 (Homo sapiens, UniProt O76039); conditions: 0.1 µM; binder
# CDC2L2 = CDC2L2 (Homo sapiens, UniProt Q9UQ88); conditions: 0.1 µM; binder
# PIK3C2G = PIK3C2G (Homo sapiens, UniProt O75747); conditions: 0.1 µM; binder
# FLT3(ITD,D835V) = FLT3(ITD,D835V) (Homo sapiens, UniProt P36888, D835V/ITD); conditions: 0.1 µM; binder
# PIP4K2C = PIP4K2C (Homo sapiens, UniProt Q8TBX8); conditions: 0.1 µM; binder
# EPHA6 = EPHA6 (Homo sapiens, UniProt Q9UF33); conditions: 0.1 µM; binder
# MAPKAPK5 = MAPKAPK5 (Homo sapiens, UniProt Q8IW41); conditions: 0.1 µM; binder
# ALK = ALK (Homo sapiens, UniProt Q9UM73); conditions: 0.1 µM; binder
# AURKA = AURKA (Homo sapiens, UniProt O14965); conditions: 0.1 µM; binder
# PIK4CB = PIK4CB (Homo sapiens, UniProt Q9UBF8); conditions: 0.1 µM; binder
# MST1R = MST1R (Homo sapiens, UniProt Q04912); conditions: 0.1 µM; binder
# VEGFR2 = VEGFR2 (Homo sapiens, UniProt P35968); conditions: 0.1 µM; binder
# KIT(L576P) = KIT(L576P) (Homo sapiens, UniProt P10721, L576P); conditions: 0.1 µM; binder
# PRKCD = PRKCD (Homo sapiens, UniProt Q05655); conditions: 0.1 µM; binder
# KIT(D816H) = KIT(D816H) (Homo sapiens, UniProt P10721, D816H); conditions: 0.1 µM; binder
# KIT(D816H), sequence (P10721 whole entry D816H): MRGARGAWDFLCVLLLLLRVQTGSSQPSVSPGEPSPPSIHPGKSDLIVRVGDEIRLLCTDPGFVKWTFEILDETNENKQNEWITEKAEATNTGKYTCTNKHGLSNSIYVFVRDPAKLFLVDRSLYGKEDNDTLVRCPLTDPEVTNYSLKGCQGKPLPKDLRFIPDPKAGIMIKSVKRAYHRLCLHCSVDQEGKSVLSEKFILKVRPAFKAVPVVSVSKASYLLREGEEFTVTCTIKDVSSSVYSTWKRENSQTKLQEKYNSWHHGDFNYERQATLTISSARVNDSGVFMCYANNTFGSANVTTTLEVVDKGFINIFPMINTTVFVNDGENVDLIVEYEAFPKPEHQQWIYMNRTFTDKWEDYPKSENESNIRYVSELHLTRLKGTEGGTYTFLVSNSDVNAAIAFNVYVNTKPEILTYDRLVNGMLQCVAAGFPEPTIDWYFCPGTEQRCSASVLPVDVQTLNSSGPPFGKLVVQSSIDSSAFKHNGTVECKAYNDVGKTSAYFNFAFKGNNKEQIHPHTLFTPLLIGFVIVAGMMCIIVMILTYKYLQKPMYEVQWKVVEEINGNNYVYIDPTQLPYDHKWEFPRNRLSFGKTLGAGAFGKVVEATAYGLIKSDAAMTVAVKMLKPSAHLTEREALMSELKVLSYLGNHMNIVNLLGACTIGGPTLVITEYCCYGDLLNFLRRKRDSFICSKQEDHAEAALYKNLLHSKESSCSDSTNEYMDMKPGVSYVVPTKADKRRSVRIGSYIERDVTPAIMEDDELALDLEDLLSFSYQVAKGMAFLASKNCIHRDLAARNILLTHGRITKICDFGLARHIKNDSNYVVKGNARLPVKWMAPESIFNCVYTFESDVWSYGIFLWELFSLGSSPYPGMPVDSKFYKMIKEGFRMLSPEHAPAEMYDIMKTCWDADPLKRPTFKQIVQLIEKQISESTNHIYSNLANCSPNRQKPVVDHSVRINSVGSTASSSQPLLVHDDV
# PIK3C2G, sequence (O75747 whole entry): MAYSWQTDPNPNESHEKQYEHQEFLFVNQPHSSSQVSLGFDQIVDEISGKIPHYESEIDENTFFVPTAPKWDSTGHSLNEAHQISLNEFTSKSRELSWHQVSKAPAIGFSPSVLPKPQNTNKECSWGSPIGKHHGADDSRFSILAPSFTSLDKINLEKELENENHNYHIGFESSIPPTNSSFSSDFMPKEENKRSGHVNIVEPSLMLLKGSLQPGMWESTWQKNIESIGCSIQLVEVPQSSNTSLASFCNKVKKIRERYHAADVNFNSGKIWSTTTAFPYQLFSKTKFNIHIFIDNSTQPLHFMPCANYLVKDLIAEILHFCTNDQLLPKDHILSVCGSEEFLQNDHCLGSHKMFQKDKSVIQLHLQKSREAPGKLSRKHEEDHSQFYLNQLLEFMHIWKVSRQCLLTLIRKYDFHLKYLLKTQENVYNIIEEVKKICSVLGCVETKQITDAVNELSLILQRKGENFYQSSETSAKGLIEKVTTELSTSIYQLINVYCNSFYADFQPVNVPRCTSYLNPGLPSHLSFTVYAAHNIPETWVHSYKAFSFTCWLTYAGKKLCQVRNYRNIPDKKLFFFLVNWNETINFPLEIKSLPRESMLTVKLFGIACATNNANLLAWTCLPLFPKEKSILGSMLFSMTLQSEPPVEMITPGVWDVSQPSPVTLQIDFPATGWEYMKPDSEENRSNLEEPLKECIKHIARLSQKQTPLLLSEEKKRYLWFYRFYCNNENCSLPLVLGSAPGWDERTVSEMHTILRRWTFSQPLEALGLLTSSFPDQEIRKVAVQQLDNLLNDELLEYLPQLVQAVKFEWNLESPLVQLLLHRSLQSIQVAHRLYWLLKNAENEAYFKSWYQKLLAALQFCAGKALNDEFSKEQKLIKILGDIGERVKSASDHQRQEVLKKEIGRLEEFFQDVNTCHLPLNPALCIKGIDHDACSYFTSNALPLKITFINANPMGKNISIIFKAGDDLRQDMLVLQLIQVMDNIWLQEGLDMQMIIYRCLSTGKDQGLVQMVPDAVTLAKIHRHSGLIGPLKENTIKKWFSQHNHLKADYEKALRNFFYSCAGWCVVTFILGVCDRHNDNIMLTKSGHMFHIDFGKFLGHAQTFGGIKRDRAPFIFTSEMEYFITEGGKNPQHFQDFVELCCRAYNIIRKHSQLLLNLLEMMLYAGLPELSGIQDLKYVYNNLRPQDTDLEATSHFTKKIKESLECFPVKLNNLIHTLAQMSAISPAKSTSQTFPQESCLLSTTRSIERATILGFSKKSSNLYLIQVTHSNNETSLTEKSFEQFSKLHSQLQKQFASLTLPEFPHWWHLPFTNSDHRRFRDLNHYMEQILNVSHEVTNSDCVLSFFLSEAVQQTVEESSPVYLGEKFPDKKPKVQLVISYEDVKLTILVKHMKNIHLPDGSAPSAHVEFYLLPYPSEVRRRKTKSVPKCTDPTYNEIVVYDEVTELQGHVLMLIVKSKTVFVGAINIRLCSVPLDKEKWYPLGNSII
# CDKL5, sequence (O76039 whole entry): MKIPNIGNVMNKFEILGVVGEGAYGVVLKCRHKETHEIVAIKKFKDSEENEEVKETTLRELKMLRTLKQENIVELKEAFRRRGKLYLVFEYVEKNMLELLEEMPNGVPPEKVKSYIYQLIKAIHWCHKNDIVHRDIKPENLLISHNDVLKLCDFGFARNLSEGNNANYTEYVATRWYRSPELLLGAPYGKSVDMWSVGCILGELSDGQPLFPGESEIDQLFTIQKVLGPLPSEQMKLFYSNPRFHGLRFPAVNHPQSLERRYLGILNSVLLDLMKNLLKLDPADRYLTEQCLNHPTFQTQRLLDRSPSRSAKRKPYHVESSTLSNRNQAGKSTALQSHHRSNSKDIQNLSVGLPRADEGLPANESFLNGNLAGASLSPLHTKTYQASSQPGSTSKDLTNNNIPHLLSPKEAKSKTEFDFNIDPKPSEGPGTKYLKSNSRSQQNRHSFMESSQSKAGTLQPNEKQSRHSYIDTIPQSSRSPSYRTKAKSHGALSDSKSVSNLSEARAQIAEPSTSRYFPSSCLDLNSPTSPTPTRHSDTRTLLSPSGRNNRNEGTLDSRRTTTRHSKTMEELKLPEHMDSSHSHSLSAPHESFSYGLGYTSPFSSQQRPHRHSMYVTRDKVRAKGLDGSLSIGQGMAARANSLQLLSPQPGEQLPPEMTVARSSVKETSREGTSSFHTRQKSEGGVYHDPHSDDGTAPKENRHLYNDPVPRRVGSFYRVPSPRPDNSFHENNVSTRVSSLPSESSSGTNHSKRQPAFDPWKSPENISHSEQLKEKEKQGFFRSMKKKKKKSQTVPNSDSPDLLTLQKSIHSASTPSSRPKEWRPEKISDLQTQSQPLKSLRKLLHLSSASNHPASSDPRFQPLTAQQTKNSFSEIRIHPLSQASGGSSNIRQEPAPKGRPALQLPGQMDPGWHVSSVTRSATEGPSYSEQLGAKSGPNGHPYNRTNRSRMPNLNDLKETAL
# ERBB4, sequence (Q15303 whole entry): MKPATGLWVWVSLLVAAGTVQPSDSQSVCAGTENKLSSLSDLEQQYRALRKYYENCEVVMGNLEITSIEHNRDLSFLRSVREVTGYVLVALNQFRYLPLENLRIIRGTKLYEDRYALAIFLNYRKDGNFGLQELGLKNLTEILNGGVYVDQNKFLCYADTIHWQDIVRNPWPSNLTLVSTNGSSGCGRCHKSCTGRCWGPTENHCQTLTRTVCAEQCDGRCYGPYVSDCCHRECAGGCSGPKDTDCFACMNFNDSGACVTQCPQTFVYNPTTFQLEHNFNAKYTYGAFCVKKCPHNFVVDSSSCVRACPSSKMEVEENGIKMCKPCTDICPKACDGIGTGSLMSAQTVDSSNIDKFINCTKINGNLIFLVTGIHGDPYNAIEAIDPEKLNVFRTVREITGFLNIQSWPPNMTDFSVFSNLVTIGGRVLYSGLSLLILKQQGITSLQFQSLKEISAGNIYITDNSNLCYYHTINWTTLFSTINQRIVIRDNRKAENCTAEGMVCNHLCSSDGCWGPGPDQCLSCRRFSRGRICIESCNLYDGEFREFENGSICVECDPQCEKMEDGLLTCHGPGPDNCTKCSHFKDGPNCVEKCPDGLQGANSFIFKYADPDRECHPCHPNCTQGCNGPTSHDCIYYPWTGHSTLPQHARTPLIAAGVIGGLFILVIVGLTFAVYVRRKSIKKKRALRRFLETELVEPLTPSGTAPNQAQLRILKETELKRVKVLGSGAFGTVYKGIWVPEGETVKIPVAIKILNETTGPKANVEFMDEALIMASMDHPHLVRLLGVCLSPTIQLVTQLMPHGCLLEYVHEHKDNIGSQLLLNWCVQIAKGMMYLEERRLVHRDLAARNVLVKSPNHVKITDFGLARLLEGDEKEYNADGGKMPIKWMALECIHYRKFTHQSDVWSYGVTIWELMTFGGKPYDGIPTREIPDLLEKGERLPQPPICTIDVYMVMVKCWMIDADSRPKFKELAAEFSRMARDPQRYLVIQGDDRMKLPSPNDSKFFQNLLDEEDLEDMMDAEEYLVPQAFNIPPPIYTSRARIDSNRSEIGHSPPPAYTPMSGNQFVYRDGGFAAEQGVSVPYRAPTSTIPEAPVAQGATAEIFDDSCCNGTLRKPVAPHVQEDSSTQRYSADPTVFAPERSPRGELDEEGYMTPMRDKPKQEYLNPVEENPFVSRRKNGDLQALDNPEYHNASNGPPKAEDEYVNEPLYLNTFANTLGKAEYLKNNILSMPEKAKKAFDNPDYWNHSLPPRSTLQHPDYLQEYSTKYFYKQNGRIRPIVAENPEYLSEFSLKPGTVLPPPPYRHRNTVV
# CDK4, sequence (P11802 whole entry): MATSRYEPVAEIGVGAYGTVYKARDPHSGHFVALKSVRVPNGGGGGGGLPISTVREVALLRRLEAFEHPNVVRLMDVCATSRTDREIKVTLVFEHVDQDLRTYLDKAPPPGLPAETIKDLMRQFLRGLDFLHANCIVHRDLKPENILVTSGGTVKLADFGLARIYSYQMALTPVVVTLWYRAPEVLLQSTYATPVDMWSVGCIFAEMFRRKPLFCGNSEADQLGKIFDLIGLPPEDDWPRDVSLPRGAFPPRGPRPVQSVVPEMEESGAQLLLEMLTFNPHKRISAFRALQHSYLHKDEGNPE
# KIT(L576P), sequence (P10721 whole entry L576P): as the sequence (P10721 whole entry D816H) above, with L576P, H816D counted along it
smiles,measurement,setting,value
"CNc1ncc2cc(-c3ccc(-c4cccc(C)n4)cc3Cl)c(=O)n(C[C@H]3OC[C@H](N)CO3)c2n1 [compound 6, G-5555]",Percent Control,HIPK4,95%
same,Percent Control,FYN,100%
same,Percent Control,ABL1(M351T),100%
same,Percent Control,ERBB4,100%
same,Percent Control,BIKE,100%
same,Percent Control,FRK,100%
same,Percent Control,DAPK1,100%
same,Percent Control,TRKA,77%
same,Percent Control,MST3,15%
same,Percent Control,PRKCQ,81%
same,Percent Control,LIMK2,100%
same,Percent Control,CDK4,100%
same,Percent Control,FAK,98%
same,Percent Control,IRAK3,95%
same,Percent Control,AKT1,100%
same,Percent Control,PHKG1,100%
same,Percent Control,CDKL5,82%
same,Percent Control,CDC2L2,100%
same,Percent Control,PIK3C2G,95%
same,Percent Control,"FLT3(ITD,D835V)",88%
same,Percent Control,PIP4K2C,79%
same,Percent Control,EPHA6,100%
same,Percent Control,MAPKAPK5,100%
same,Percent Control,ALK,89%
same,Percent Control,AURKA,98%
same,Percent Control,PIK4CB,97%
same,Percent Control,MST1R,73%
same,Percent Control,VEGFR2,98%
same,Percent Control,KIT(L576P),100%
same,Percent Control,PRKCD,100%
same,Percent Control,KIT(D816H),100%
